Assay results published in ChEMBL document CHEMBL1201862, “PubChem BioAssay data set” (2004).
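Tested at 5 concentrations; 48 h exposure; 96-well plates; endpoints linearly interpolated, else capped at highest concentration. Here, GI50 denotes the concentration required for 50% inhibition of growth.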 Active and inactive are the calls of the source. No stated cut-off is given here; in the data, active = GI50 up to about 1.1 µM and inactive = higher.

How the values were obtained:
Assay in all cases: inhibition of tumour cell growth, NCI panel, 48 h
T47D = test system: T47D
CCRF-CEM = test system: CCRF-CEM
EKVX = test system: EKVX
Hs-578T = test system: Hs-578T
HOP-62 = test system: HOP-62
CAKI-1 = test system: CAKI-1
K562 = test system: K562
MDA-MB-435 = test system: MDA-MB-435
A498 = test system: A498
MCF7 = test system: MCF7
SF-295 = test system: SF-295
SF-539 = test system: SF-539
SNB-75 = test system: SNB-75
NCI-H226 = test system: NCI-H226
MDA-MB-231 = test system: MDA-MB-231
OVCAR-5 = test system: OVCAR-5
SF-268 = test system: SF-268
A549 = test system: A549
M14 = test system: M14
NCI-H460 = test system: NCI-H460
NCI-H522 = test system: NCI-H522
TK-10 = test system: TK-10
MOLT-4 = test system: MOLT-4
ACHN = test system: ACHN
786-0 = test system: 786-0
LOX IMVI = test system: LOX IMVI
HCT-116 = test system: HCT-116
NCI/ADR-RES = test system: NCI/ADR-RES
HCC 2998 = test system: HCC 2998
SK-MEL-2 = test system: SK-MEL-2
UO-31 = test system: UO-31
KM12 = test system: KM12
BT-549 = test system: BT-549
UACC-62 = test system: UACC-62
UACC-257 = test system: UACC-257
PC-3 = test system: PC-3
DU-145 = test system: DU-145
COLO 205 = test system: COLO 205
OVCAR-3 = test system: OVCAR-3
SN12C = test system: SN12C
HT-29 = test system: HT-29
SW-620 = test system: SW-620
OVCAR-4 = test system: OVCAR-4
RPMI-8226 = test system: RPMI-8226
NCI-H23 = test system: NCI-H23
HOP-92 = test system: HOP-92
IGROV-1 = test system: IGROV-1
OVCAR-8 = test system: OVCAR-8
HCT-15 = test system: HCT-15
SNB-19 = test system: SNB-19
U-251 = test system: U-251
SK-MEL-5 = test system: SK-MEL-5
RXF 393 = test system: RXF 393
SK-OV-3 = test system: SK-OV-3
SK-MEL-28 = test system: SK-MEL-28
MDA-N = test system: MDA-N
Malme-3M = test system: Malme-3M
HL-60 = test system: HL-60

## Cc1cccc(C)c1NC(=S)NC=C(C(N)=O)C(N)=O
T47D
  GI50: > 100 µM (inactive)
CCRF-CEM
  GI50: > 100 µM (inactive)
EKVX
  GI50: > 100 µM (inactive)
Hs-578T
  GI50: > 100 µM (inactive)
HOP-62
  GI50: > 100 µM (inactive)
CAKI-1
  GI50: > 100 µM (inactive)
K562
  GI50: > 100 µM (inactive)
MDA-MB-435
  GI50: > 100 µM (inactive)
A498
  GI50: > 100 µM (inactive)
MCF7
  GI50: > 100 µM (inactive)
SF-295
  GI50: > 100 µM (inactive)
SF-539
  GI50: > 100 µM (inactive)
SNB-75
  GI50: > 100 µM (inactive)
NCI-H226
  GI50: > 100 µM (inactive)
MDA-MB-231
  GI50: > 100 µM (inactive)
OVCAR-5
  GI50: > 100 µM (inactive)
SF-268
  GI50: > 100 µM (inactive)
A549
  GI50: > 100 µM (inactive)
M14
  GI50: > 100 µM (inactive)
NCI-H460
  GI50: > 100 µM (inactive)
NCI-H522
  GI50: > 100 µM (inactive)
TK-10
  GI50: > 100 µM (inactive)
MOLT-4
  GI50: > 100 µM (inactive)
ACHN
  GI50: > 100 µM (inactive)
786-0
  GI50: > 100 µM (inactive)
LOX IMVI
  GI50: > 100 µM (inactive)
HCT-116
  GI50: > 100 µM (inactive)
NCI/ADR-RES
  GI50: > 100 µM (inactive)
HCC 2998
  GI50: > 100 µM (inactive)
SK-MEL-2
  GI50: > 100 µM (inactive)
UO-31
  GI50: > 100 µM (inactive)
KM12
  GI50: > 100 µM (inactive)
BT-549
  GI50: > 100 µM (inactive)
UACC-62
  GI50: > 100 µM (inactive)
UACC-257
  GI50: > 100 µM (inactive)
PC-3
  GI50: > 100 µM (inactive)
DU-145
  GI50: > 100 µM (inactive)
COLO 205
  GI50: > 100 µM (inactive)
OVCAR-3
  GI50: > 100 µM (inactive)
SN12C
  GI50: > 100 µM (inactive)
HT-29
  GI50: > 100 µM (inactive)
SW-620
  GI50: > 100 µM (inactive)
OVCAR-4
  GI50: > 100 µM (inactive)
RPMI-8226
  GI50: > 100 µM (inactive)
NCI-H23
  GI50: > 100 µM (inactive)
HOP-92
  GI50: > 100 µM (inactive)
IGROV-1
  GI50: > 100 µM (inactive)
OVCAR-8
  GI50: > 100 µM (inactive)
HCT-15
  GI50: > 100 µM
SNB-19
  GI50: > 100 µM (inactive)
U-251
  GI50: > 100 µM (inactive)
SK-MEL-5
  GI50: > 100 µM (inactive)
RXF 393
  GI50: > 100 µM (inactive)
SK-OV-3
  GI50: > 100 µM (inactive)
SK-MEL-28
  GI50: > 100 µM (inactive)
MDA-N
  GI50: > 100 µM (inactive)

## CNC(=O)CCCNC(=O)CCCC(=O)N(C)C
T47D
  GI50: > 100 µM (inactive)
CCRF-CEM
  GI50: > 100 µM (inactive)
EKVX
  GI50: > 100 µM (inactive)
Hs-578T
  GI50: > 100 µM (inactive)
HOP-62
  GI50: > 100 µM (inactive)
CAKI-1
  GI50: > 100 µM (inactive)
K562
  GI50: > 100 µM (inactive)
MDA-MB-435
  GI50: > 100 µM (inactive)
A498
  GI50: > 100 µM (inactive)
MCF7
  GI50: > 100 µM (inactive)
SF-295
  GI50: > 100 µM (inactive)
SF-539
  GI50: > 100 µM (inactive)
SNB-75
  GI50: > 100 µM (inactive)
NCI-H226
  GI50: > 100 µM (inactive)
MDA-MB-231
  GI50: > 100 µM (inactive)
OVCAR-5
  GI50: > 100 µM (inactive)
SF-268
  GI50: > 100 µM (inactive)
A549
  GI50: > 100 µM (inactive)
Malme-3M
  GI50: > 100 µM (inactive)
M14
  GI50: > 100 µM (inactive)
NCI-H460
  GI50: > 100 µM (inactive)
NCI-H522
  GI50: > 100 µM (inactive)
TK-10
  GI50: > 100 µM (inactive)
HL-60
  GI50: > 100 µM (inactive)
MOLT-4
  GI50: > 100 µM (inactive)
ACHN
  GI50: > 100 µM (inactive)
786-0
  GI50: > 100 µM (inactive)
LOX IMVI
  GI50: > 100 µM (inactive)
HCT-116
  GI50: > 100 µM (inactive)
NCI/ADR-RES
  GI50: > 100 µM (inactive)
HCC 2998
  GI50: > 100 µM (inactive)
SK-MEL-2
  GI50: > 100 µM (inactive)
UO-31
  GI50: > 100 µM (inactive)
KM12
  GI50: > 100 µM (inactive)
BT-549
  GI50: > 100 µM (inactive)
UACC-62
  GI50: > 100 µM (inactive)
UACC-257
  GI50: > 100 µM (inactive)
PC-3
  GI50: > 100 µM (inactive)
DU-145
  GI50: > 100 µM (inactive)
COLO 205
  GI50: > 100 µM (inactive)
OVCAR-3
  GI50: > 100 µM (inactive)
SN12C
  GI50: > 100 µM (inactive)
HT-29
  GI50: > 100 µM (inactive)
SW-620
  GI50: 45.5 µM (inactive)
RPMI-8226
  GI50: > 100 µM (inactive)
NCI-H23
  GI50: > 100 µM (inactive)
HOP-92
  GI50: > 100 µM (inactive)
IGROV-1
  GI50: > 100 µM (inactive)
OVCAR-8
  GI50: > 100 µM (inactive)
HCT-15
  GI50: > 100 µM
SNB-19
  GI50: > 100 µM (inactive)
U-251
  GI50: > 100 µM (inactive)
SK-MEL-5
  GI50: > 100 µM (inactive)
SK-OV-3
  GI50: > 100 µM (inactive)
SK-MEL-28
  GI50: > 100 µM (inactive)
MDA-N
  GI50: > 100 µM (inactive)
